PMC8154574 (Journal of Medicinal Chemistry, 2021)

What was measured:
hA2AAR [1] = biological target: T1, hA2AAR (Homo sapiens, UniProt P29274); conditions: label-free whole-cell assay, HEK293hA2AR
[2] = patients with heart failure; cited from earlier work
hA2AAR [3] = biological target: T1, hA2AAR; conditions: 1 μM; all adenosine receptor subtypes

T1 sequence (P29274 whole entry): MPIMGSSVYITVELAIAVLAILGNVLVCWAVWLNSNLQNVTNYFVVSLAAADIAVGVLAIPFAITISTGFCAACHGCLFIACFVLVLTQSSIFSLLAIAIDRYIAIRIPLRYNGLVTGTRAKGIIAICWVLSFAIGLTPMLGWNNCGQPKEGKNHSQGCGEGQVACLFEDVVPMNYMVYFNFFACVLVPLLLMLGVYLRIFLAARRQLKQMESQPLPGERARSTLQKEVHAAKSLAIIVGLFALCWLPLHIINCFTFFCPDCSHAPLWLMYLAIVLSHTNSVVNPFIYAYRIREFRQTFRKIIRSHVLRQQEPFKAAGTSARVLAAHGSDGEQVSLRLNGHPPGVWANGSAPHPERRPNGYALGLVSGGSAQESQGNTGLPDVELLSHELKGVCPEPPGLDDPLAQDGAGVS

functional behavior / intrinsic activity at hA2AAR (hA2AAR [1])	SMILES	further results
	N#Cc1c(SCc2csc(-c3ccc(Cl)cc3)n2)nc(N2CCCC2)c(C#N)c1-c1ccc(OCCO)cc1 [neladenoson]	primary endpoint of phase 2b clinical trial [2]: failed to meet the primary endpoint
	Nc1cc(-c2ccccc2)cc(SCc2ncc[nH]2)n1 [Compound 5, 6-(((1H-Imidazol-2-yl)methyl)thio)-4-phenylpyridin-2-amine]	displacement of radioligand binding in preliminary single-concentration assays (hA2AAR [3]): no or negligible displacement
inverse agonist	N#Cc1c(SCc2ncc[nH]2)nc(N)nc1-c1ccccc1 [Compound 3, 4-((1H-Imidazol-2-yl)methylthio)-2-amino-6-phenylpyrimidine-5-carbonitrile]	
inverse agonism	Nc1nc(SCc2ncc[nH]2)nc(-c2ccccc2)n1 [Compound 2, 4-(1H-Imidazol-2-yl)methylthio-6-phenyl-1,3,5-triazin-2-amine]	

SMILES	functional behavior / intrinsic activity at hA2AAR (hA2AAR [1])	further results
N#Cc1c(-c2ccccc2)cc(N)nc1SCc1ncc[nH]1 [Compound 6, 2-(((1H-Imidazol-2-yl)methyl)thio)-6-amino-4-phenylnicotinonitrile]	did not show any measurable degree of intrinsic activity	
